Results on 27 compounds are retold here after patent US20250368614A1, “COMPOUNDS AND METHODS FOR YAP/TEAD MODULATION AND INDICATIONS THEREFOR” (OPNA BIO SA, priority 2023, published 2025).

The test system of this assay is TEAD-dependent transcription (12XGTIIC TEAD response element luciferase reporter) in MSTO-211H cells. Kind of assay: TEAD-dependent transcription cell-based luciferase reporter assay in MSTO-211H+12XGTIIC cells. The conditions noted are these: Homo sapiens; MSTO-211H+12XGTIIC reporter cells, 24 hours compound incubation, luminescence normalized to cell viability signal, geometric mean; read-out: MSTO-211H GMean IC50 (uM) Cell Assay Reporter Cell Variant: TEAD. From the text:
Determine Inhibitor Activity Against TEAD-Dependent Transcription in a Cell-Based Reporter Assay
The human mesothelioma cell line MSTO-211H was stably transfected with a pGL4.21 plasmid containing a synthetic promoter with 12 copies of the GTIIC TEAD response element that drives the expression of a luciferase reporter gene^1 using Lipofectamine transfection reagent (Thermo Fisher). Transfected cells were selected using puromycin and single cell clones expressing this construct (referred to as MSTO-211H+12XGTIIC) were generated by limiting dilution. MSTO-211H cells was characterized by genetic alterations in key components of the Hippo pathway^2, resulting in up-regulation of YAP/TEAD-mediated transcription. […] To evaluate TEAD inhibitors, the MSTO-211H+12XGTIIC cell line was seeded in a 96-well plate in 50 μL of culture media at 1×10^4 cells per well and incubated at 37° C. overnight. Serial dilutions of compounds (in total volume of 50 μL of culture media) were added to the cells and incubated at 37° C. for 24 hours. Each plate included cells treated with DMSO as high controls and cells treated with 20 μM of the reference compound K-975 (a known TEAD inhibitor^3) as low controls. Cell viability was assayed by the addition of 25 μL of CellTiter-Fluor reagent (Promega) followed by a 30-minute incubation at 37° C. and quantification of the fluorescence signal (Ex400/Em505). Subsequently, luciferase expression was assayed by the addition of 25 μL of ONE-Glo reagent (Promega) followed by a 10-minute incubation at room temperature and quantification of the luminescence signal. The luminescence signal was normalized to the fluorescence signal to correct for any loss in cell viability over the 24-hour compound incubation period. The percentage of inhibition of normalized luminescence signal, indicative of compound-mediated inhibition of TEAD-dependent transcription, at individual compound concentrations relative to high and low controls was calculated. The data were analyzed by using nonlinear regression to generate IC50 values for individual compounds.
(Reporter assays use an easily measured gene product as a stand-in for the process of interest.)

Molecules are shown by their SMILES.

For orientation: IC50 means the concentration that gives 50% inhibition. `O=C(NCCC(=O)N1CCc2c(cccc2Nc2ccc(C(F)(F)F)nc2)C1)Nc1ccccn1` [Compound O-0184, 1-(3-oxo-3-(5-((6-(trifluoromethyl)pyridin-3-yl)amino)-3,4-dihydroisoquinolin-2(1H)-yl)propyl)-3-(pyridin-2-yl)urea]: the IC50 was in the range of 0.001 to 10 µM. To `C=CC(=O)Nc1nccc(C(=O)N2CCc3c(cccc3Nc3ccc(C(F)(F)F)cc3)C2)n1` [Compound O-0039, N-(4-(5-((4-(trifluoromethyl)phenyl)amino)-1,2,3,4-tetrahydroisoquinoline-2-carbonyl)pyrimidin-2-yl)acrylamide] belongs 0.001 to 10 µM; to `CS(=O)(=O)c1nc(C(=O)N2CCc3c(cccc3Nc3ccc(C(F)(F)F)cc3)C2)c[nH]1` [Compound O-0045, (2-(methylsulfonyl)-1H-imidazol-4-yl)(5-((4-(trifluoromethyl)phenyl)amino)-3,4-dihydroisoquinolin-2(1H)-yl)methanone], 0.001 to 10 µM. On to `C=CC(=O)Nc1ccnc(C(=O)N2CCc3c(cccc3Nc3ccc(C(F)(F)F)cc3)C2)c1` [Compound O-0036, N-(2-(5-((4-(trifluoromethyl)phenyl)amino)-1,2,3,4-tetrahydroisoquinoline-2-carbonyl)pyridin-4-yl)acrylamide], for which the IC50 was in the range of 0.001 to 10 µM. For `C=CC(=O)Nc1cccc(C(=O)N2CCc3c(cccc3Nc3ccc(C(F)(F)F)cc3)C2)n1` [Compound O-0035, N-(6-(5-((4-(trifluoromethyl)phenyl)amino)-1,2,3,4-tetrahydroisoquinoline-2-carbonyl)pyridin-2-yl)acrylamide], the half-inhibitory concentration (IC50) lay in the range of 0.001 to 10 µM. As for `O=C(Cc1cn[nH]c1)N1CCc2c(cccc2Nc2ccc(C(F)(F)F)cc2)C1` [Compound O-0026, 2-(1H-pyrazol-4-yl)-1-(5-((4-(trifluoromethyl)phenyl)amino)-3,4-dihydroisoquinolin-2(1H)-yl)ethan-1-one], the concentration for half-maximal inhibition (IC50) fell in the range of 0.001 to 10 µM. For the compound `Cc1nc(CC(=O)N2CCc3c(cccc3Nc3ccc(C(F)(F)F)cc3)C2)co1` [Compound O-0005, 2-(2-methyloxazol-4-yl)-1-(5-((4-(trifluoromethyl)phenyl)amino)-3,4-dihydroisoquinolin-2(1H)-yl)ethan-1-one], the IC50 is 0.001 to 10 µM. Consider `NC(=O)NCCC(=O)N1CCc2c(cccc2Nc2ccc(C(F)(F)F)c(F)c2)C1` [Compound O-0190, 1-(3-(5-((3-fluoro-4-(trifluoromethyl)phenyl)amino)-3,4-dihydroisoquinolin-2(1H)-yl)-3-oxopropyl)urea], for which the IC50 was in the range of 0.001 to 10 µM. For `CNS(=O)(=O)c1cccc(C(=O)N2CCc3c(cccc3Nc3ccc(C(F)(F)F)cc3)C2)c1` [Compound O-0200, N-methyl-3-(5-((4-(trifluoromethyl)phenyl)amino)-1,2,3,4-tetrahydroisoquinoline-2-carbonyl)benzenesulfonamide], the concentration for half-maximal inhibition (IC50) lay within 0.001 to 10 µM.

Consider `O=C(NCCC(=O)N1CCc2c(cccc2Nc2ccc(C(F)(F)F)c(F)c2)C1)Nc1ccccn1` [Compound O-0185, 1-(3-(5-((3-fluoro-4-(trifluoromethyl)phenyl)amino)-3,4-dihydroisoquinolin-2(1H)-yl)-3-oxopropyl)-3-(pyridin-2-yl)urea], for which the IC50 was in the range of 0.001 to 10 µM. `O=C(Cc1c[nH]cn1)N1CCc2c(cccc2Nc2ccc(C(F)(F)F)cc2)C1` [Compound O-0053, 2-(1H-imidazol-4-yl)-1-(5-((4-(trifluoromethyl)phenyl)amino)-3,4-dihydroisoquinolin-2(1H)-yl)ethan-1-one]: the IC50 was 0.001 to 10 µM.

As to `Nc1nc(C(=O)N2CCc3c(cccc3Nc3ccc(C(F)(F)F)cc3)C2)cs1` [Compound O-0006, (2-aminothiazol-4-yl)(5-((4-(trifluoromethyl)phenyl)amino)-3,4-dihydroisoquinolin-2(1H)-yl)methanone], the 50% inhibitory concentration (IC50) lay in the range of 0.001 to 10 µM.

For the compound `O=C(NCCC(=O)N1CCc2c(cccc2Nc2ccc(C(F)(F)F)cn2)C1)NC1CC1` [Compound O-0187, 1-cyclopropyl-3-(3-oxo-3-(5-((5-(trifluoromethyl)pyridin-2-yl)amino)-3,4-dihydroisoquinolin-2(1H)-yl)propyl)urea], the IC50 was in the range of 0.001 to 10 µM. The result for `C=CC(=O)Nc1ccc(C(=O)N2CCc3c(cccc3N(C)c3ccc(C(F)(F)F)cc3)C2)cc1` [Compound O-0019, N-(4-(5-(methyl(4-(trifluoromethyl)phenyl)amino)-1,2,3,4-tetrahydroisoquinoline-2-carbonyl)phenyl)acrylamide] reads 0.001 to 10 µM; that for `C=CC(=O)Nc1cccc(C(=O)N2CCc3c(cccc3N(C)c3ccc(C(F)(F)F)cc3)C2)c1` [Compound O-0017, N-(3-(5-(methyl(4-(trifluoromethyl)phenyl)amino)-1,2,3,4-tetrahydroisoquinoline-2-carbonyl)phenyl)acrylamide], 0.001 to 10 µM.

Take `CN(c1ccc(C(F)(F)F)cn1)c1cccc2c1CCN(C(=O)CCS(=O)(=O)C(F)(F)F)C2` [Compound O-0022, 1-(5-(methyl(5-(trifluoromethyl)pyridin-2-yl)amino)-3,4-dihydroisoquinolin-2(1H)-yl)-3-((trifluoromethyl)sulfonyl)propan-1-one]: the IC50 lay in the range of 0.001 to 10 µM.

For `Nc1cccc(CNC(=O)N2CCc3c(cccc3Nc3ccc(C(F)(F)F)cc3)C2)n1` [Compound O-0191, N-((6-aminopyridin-2-yl)methyl)-5-((4-(trifluoromethyl)phenyl)amino)-3,4-dihydroisoquinoline-2(1H)-carboxamide], the IC50 lay within 0.001 to 10 µM. The result for `C=CC(=O)Nc1cccc(C(=O)N2CCc3c(cccc3Nc3ccc(C(F)(F)F)cc3)C2)c1` [Compound O-0034, N-(3-(5-((4-(trifluoromethyl)phenyl)amino)-1,2,3,4-tetrahydroisoquinoline-2-carbonyl)phenyl)acrylamide] reads 0.001 to 10 µM. The result for `Nc1cncc(C(=O)N2CCc3c(cccc3Nc3ccc(C(F)(F)F)cc3)C2)c1` [Compound O-0031, (5-aminopyridin-3-yl)(5-((4-(trifluoromethyl)phenyl)amino)-3,4-dihydroisoquinolin-2(1H)-yl)methanone] reads 0.001 to 10 µM; that for `NC(=O)NCCC(=O)N1CCc2c(cccc2Nc2ccc(C(F)(F)F)nc2)C1` [Compound O-0189, 1-(3-oxo-3-(5-((6-(trifluoromethyl)pyridin-3-yl)amino)-3,4-dihydroisoquinolin-2(1H)-yl)propyl)urea], 0.001 to 10 µM; that for `C=CC(=O)Nc1cc(C(=O)N2CCc3c(cccc3Nc3ccc(C(F)(F)F)cc3)C2)ccn1` [Compound O-0038, N-(4-(5-((4-(trifluoromethyl)phenyl)amino)-1,2,3,4-tetrahydroisoquinoline-2-carbonyl)pyridin-2-yl)acrylamide], 0.001 to 10 µM. The result for `O=C1NC(=O)C(CC(=O)N2CCc3c(cccc3Nc3ccc(C(F)(F)F)c(F)c3)C2)N1` (stereo not drawn) [Compound O-0197, 5-(2-(5-((3-fluoro-4-(trifluoromethyl)phenyl)amino)-3,4-dihydroisoquinolin-2(1H)-yl)-2-oxoethyl)imidazolidine-2,4-dione] reads 0.001 to 10 µM.

With `O=C(CCS(=O)(=O)C(F)(F)F)N1CCc2c(cccc2Nc2ccc(C(F)(F)F)nc2)C1` [Compound O-0020, 1-(5-((6-(trifluoromethyl)pyridin-3-yl)amino)-3,4-dihydroisoquinolin-2(1H)-yl)-3-((trifluoromethyl)sulfonyl)propan-1-one], the IC50 was in the range of 0.001 to 10 µM. As for `N=C(N)N1CCC(C(=O)N2CCc3c(cccc3Nc3ccc(C(F)(F)F)cn3)C2)C1` (stereo not drawn) [Compound O-0203, 3-(5-((5-(trifluoromethyl)pyridin-2-yl)amino)-1,2,3,4-tetrahydroisoquinoline-2-carbonyl)pyrrolidine-1-carboximidamide], the half-maximal inhibitory concentration (IC50) is 0.001 to 10 µM. In the case of `Nc1cc(C(=O)N2CCc3c(cccc3Nc3ccc(C(F)(F)F)cc3)C2)ccn1` [Compound O-0032, (2-aminopyridin-4-yl)(5-((4-(trifluoromethyl)phenyl)amino)-3,4-dihydroisoquinolin-2(1H)-yl)methanone], the 50% inhibitory concentration (IC50) lay in the range of 0.001 to 10 µM.

As to `O=C(Nc1ccccn1)N1CCC(C(=O)N2CCc3c(cccc3Nc3ccc(C(F)(F)F)cc3F)C2)C1` (stereo not drawn) [Compound O-0095, 3-(5-((2-fluoro-4-(trifluoromethyl)phenyl)amino)-1,2,3,4-tetrahydroisoquinoline-2-carbonyl)-N-(pyridin-2-yl)pyrrolidine-1-carboxamide], the half-maximal inhibitory concentration (IC50) fell in the range of 0.001 to 10 µM.

For `C=CC(=O)Nc1cncc(C(=O)N2CCc3c(cccc3Nc3ccc(C(F)(F)F)cc3)C2)c1` [Compound O-0037, N-(5-(5-((4-(trifluoromethyl)phenyl)amino)-1,2,3,4-tetrahydroisoquinoline-2-carbonyl)pyridin-3-yl)acrylamide], the IC50 was in the range of 0.001 to 10 µM.
